Legend:
Assay type in all cases: in vivo
[1] = test system: IPOHE: ivyleaf morningglory (Ipomoea hederecea); assay: Pre-emergent Test I herbicidal activity; settings: pre-emergence, 336 h, read-out: Visual Growth Reduction (%) 14 Days After Application, IPOHE; for pest or weed control at 3840 g/ha: 3.84 kg ai/ha
Procedure: (§1) Pre-emergent Test I Seeds of test species were planted into round plastic pots (5-inch diameter) containing sandy loam soil. After planting, all pots were sub-irrigated 16 h prior to compound application. Compounds were dissolved in a 97:3 v/v (volume/volume) mixture of acetone and dimethyl sulfoxide (DMSO) and diluted to the appropriate concentration in a final application solution containing water, acetone, isopropanol, DMSO and Agri-dex (crop oil concentrate) in a 59:23:15:1.0:1.5 v/v ratio and 0.02% w/v (weight/volume) of Triton X-155 to obtain the spray solution containing the highest application rate. Additional application rates were obtained by serial dilution of the high rate solution with the above application solution. Formulated compound (2.7 mL) was applied pipetted evenly over the soil surface followed by incorporation with water (15 mL). Following treatment, pots were returned to the greenhouse for the duration of the experiment. The greenhouse was programmed for an approximate 15 h photoperiod which was maintained at about 23-29° C. during the day and 22-28° C. during the night. Nutrients and water were added on a regular basis through surface irrigation and supplemental lighting was provided with overhead metal halide 1000-Watt lamps as necessary. Herbicidal effect ratings were obtained 14 days after treatment. All evaluations were made relative to appropriate controls on a scale of 0 to 100 where 0 represents no herbicidal effect and 100 represents plant death or lack of emergence from the soil.

[2] = test system: ECHCG: barnyardgrass (Echinochloa crus-galli); assay: Pre-emergent Test I herbicidal activity; settings: pre-emergence, 336 h, read-out: Visual Growth Reduction (%) 14 Days After Application, ECHCG; for pest or weed control at 3840 g/ha: 3.84 kg ai/ha
Procedure: as §1

[3] = test system: HELAN: sunflower (Helianthus annuus); assay: Pre-emergent Test I herbicidal activity; settings: pre-emergence, 336 h, read-out: Visual Growth Reduction (%) 14 Days After Application, HELAN; for pest or weed control at 3840 g/ha: 3.84 kg ai/ha
Procedure: as §1

[4] = test system: AMARE: redroot pigwseed (Amaranthus retroflexus); assay: Pre-emergent Test I herbicidal activity; settings: pre-emergence, 336 h, read-out: Visual Growth Reduction (%) 14 Days After Application, AMARE; for pest or weed control at 3840 g/ha: 3.84 kg ai/ha
Procedure: as §1

[5] = test system: AVEFA: wild oats (Avena fatua); assay: Pre-emergent Test I herbicidal activity; settings: pre-emergence, 336 h, read-out: Visual Growth Reduction (%) 14 Days After Application, AVEFA
Procedure: as §1

[6] = test system: IPOHE: ivyleaf morningglory (Ipomoea hederecea); assay: Post-emergent Test I herbicidal activity; settings: post-emergence, 336 h, read-out: Visual Growth Reduction (%) 14 Days After Application, IPOHE; for pest or weed control at 3840 g/ha: 3.84 kg ai/ha
Procedure: (§2) Post-emergent Test I Seeds test species were obtained from commercial suppliers and planted into a 13 cm diameter-round pot containing soil-less media mix (metro-mix 360®, Sun Gro Horticulture). Postemergence treatments were planted 8-12 days prior to application and cultured in a greenhouse equipped with supplemental light sources to provide a 16 h photoperiod at 24-29° C. All pots were surface irrigated.
(§3) A weighted amount, determined by the highest rate to be tested, of each compound was dissolved in 1.3 mL acetone-DMSO (97:3, v/v) and diluted with 4.1 mL water-isopropanol-crop oil concentrate (78:20:2, v/v/v) containing 0.02% Triton X-155 to obtain concentrated stock solutions. Additional application rates were obtained by serial dilution of the high rate solution into a solution containing appropriate volume of 97:3 v/v mixture of acetone and DMSO and appropriate volume of an aqueous mixture of water, isopropyl alcohol, crop oil concentrate (78:20:2, v/v/v) containing 0.02% Triton X-155.
(§4) Formulated compounds were applied using a DeVilbiss® compressed air sprayer at 2-4 psi. Following treatment, pots were returned to the greenhouse for the duration of the experiment. All pots were sub-irrigated as need to provide optimum growing conditions. All pots were fertilized one time per week by subirrigating with Peters Peat-Lite Special® fertilizer (20-10-20).
(§5) […] All evaluations were made visually on a scale of 0 to 100 where 0 represents no activity and 100 represents complete plant death. Visual assessments of plant injury were made based on growth reduction, discoloration, leaf deformity and necrosis.

[7] = test system: ECHCG: barnyardgrass (Echinochloa crus-galli); assay: Post-emergent Test I herbicidal activity; settings: post-emergence, 336 h, read-out: Visual Growth Reduction (%) 14 Days After Application, ECHCG; for pest or weed control at 3840 g/ha: 3.84 kg ai/ha
Procedure: as §2, §3, §4, §5

[8] = test system: HELAN: sunflower (Helianthus annuus); assay: Post-emergent Test I herbicidal activity; settings: post-emergence, 336 h, read-out: Visual Growth Reduction (%) 14 Days After Application, HELAN; for pest or weed control at 3840 g/ha: 3.84 kg ai/ha
Procedure: as §2, §3, §4, §5

[9] = test system: SETFA: giant foxtail (Setaria faberi); assay: Post-emergent Test I herbicidal activity; settings: post-emergence, 336 h, read-out: Visual Growth Reduction (%) 14 Days After Application, SETFA; for pest or weed control at 3840 g/ha: 3.84 kg ai/ha
Procedure: as §2, §3, §4, §5

[10] = test system: AMARE: redroot pigwseed (Amaranthus retroflexus); assay: Post-emergent Test I herbicidal activity; settings: post-emergence, read-out: Visual Growth Reduction (%), AMARE; for pest or weed control at 3840 g/ha: 3.84 kg ai/ha
Procedure: as §2, §3, §4, §5

[11] = test system: AVEFA: wild oats (Avena fatua); assay: Post-emergent Test I herbicidal activity; settings: post-emergence, 336 h, read-out: Visual Growth Reduction (%) 14 Days After Application, AVEFA; for pest or weed control at 3840 g/ha: 3.84 kg ai/ha
Procedure: as §2, §3, §4, §5

[12] = test system: SETFA: giant foxtail (Setaria faberi); assay: Pre-emergent Test I herbicidal activity; settings: pre-emergence, 336 h, read-out: Visual Growth Reduction (%) 14 Days After Application, SETFA
Procedure: as §1

COC(=O)c1nc(-c2ccc(I)cc2)c(F)c(N)c1Cl [Compound 118, Methyl 4-amino-6-(4-iodophenyl)-3-chloro-5-fluoropicolinate]
pest or weed control at 2320 g/ha ([1]; 2.32 kg ai/ha): 95 to 100% | pest or weed control at 2320 g/ha ([2]; 2.32 kg ai/ha): 95 to 100% | pest or weed control at 2320 g/ha ([3]; 2.32 kg ai/ha): 95 to 100% | pest or weed control at 2320 g/ha ([4]; 2.32 kg ai/ha): 95 to 100% | pest or weed control at 2320 g/ha ([5]; 2.32 kg ai/ha): 95 to 100% | pest or weed control at 2320 g/ha ([6]; 2.32 kg ai/ha): 95 to 100% | pest or weed control at 2320 g/ha ([7]; 2.32 kg ai/ha): 95 to 100% | pest or weed control at 2320 g/ha ([8]; 2.32 kg ai/ha): 95 to 100% | pest or weed control at 2320 g/ha ([9]; 2.32 kg ai/ha): 95 to 100% | pest or weed control at 2320 g/ha ([10]; 2.32 kg ai/ha): 95 to 100% | pest or weed control at 2320 g/ha ([11]; 2.32 kg ai/ha): 95 to 100%

C=Cc1c(C(=O)OC)nc(-c2ccc(Cl)c(F)c2)c(F)c1N [Compound 215, methyl 4-amino-6-(4-chloro-3-fluorophenyl)-5-fluoro-3-vinylpicolinate]
pest or weed control at 3960 g/ha ([1]; 3.96 kg ai/ha): 95 to 100% | pest or weed control at 3960 g/ha ([2]; 3.96 kg ai/ha): 95 to 100% | pest or weed control at 3960 g/ha ([3]; 3.96 kg ai/ha): 95 to 100% | pest or weed control at 3960 g/ha ([12]; 3.96 kg ai/ha): 85 to 94% | pest or weed control at 3960 g/ha ([4]; 3.96 kg ai/ha): 95 to 100% | pest or weed control at 3960 g/ha ([5]; 3.96 kg ai/ha): 85 to 94% | pest or weed control at 3960 g/ha ([6]; 3.96 kg ai/ha): 95 to 100% | pest or weed control at 3960 g/ha ([7]; 3.96 kg ai/ha): 85 to 94% | pest or weed control at 3960 g/ha ([8]; 3.96 kg ai/ha): 95 to 100% | pest or weed control at 3960 g/ha ([9]; 3.96 kg ai/ha): 0 to 29% | pest or weed control at 3960 g/ha ([11]; 3.96 kg ai/ha): 30 to 44%

COC(=O)c1nc(-c2ccc(C#N)cc2)c(F)c(N)c1Cl [Compound 142]
pest or weed control at 3840 g/ha [1]: 95 to 100% | pest or weed control at 3840 g/ha [2]: 30 to 44% | pest or weed control at 3840 g/ha [3]: 95 to 100% | pest or weed control at 3840 g/ha [4]: 95 to 100% | pest or weed control at 3840 g/ha ([5]; 3.84 kg ai/ha): 95 to 100% | pest or weed control at 3840 g/ha [6]: 95 to 100% | pest or weed control at 3840 g/ha [7]: 95 to 100% | pest or weed control at 3840 g/ha [8]: 95 to 100% | pest or weed control at 3840 g/ha [9]: 60 to 74% | pest or weed control at 3840 g/ha [10]: 95 to 100% | pest or weed control at 3840 g/ha [11]: 45 to 59%

COC(=O)c1nc(-c2ccc(OC(F)F)cc2)c(F)c(N)c1Cl [Compound 85]
pest or weed control at 3760 g/ha ([1]; 3.76 kg ai/ha): 30 to 44% | pest or weed control at 3760 g/ha ([2]; 3.76 kg ai/ha): 95 to 100% | pest or weed control at 3760 g/ha ([3]; 3.76 kg ai/ha): 95 to 100% | pest or weed control at 3760 g/ha ([4]; 3.76 kg ai/ha): 95 to 100% | pest or weed control at 3760 g/ha ([5]; 3.76 kg ai/ha): 75 to 84% | pest or weed control at 3760 g/ha ([6]; 3.76 kg ai/ha): 30 to 44% | pest or weed control at 3760 g/ha ([7]; 3.76 kg ai/ha): 95 to 100% | pest or weed control at 3760 g/ha ([8]; 3.76 kg ai/ha): 95 to 100% | pest or weed control at 3760 g/ha ([9]; 3.76 kg ai/ha): 85 to 94% | pest or weed control at 3760 g/ha ([10]; 3.76 kg ai/ha): 95 to 100% | pest or weed control at 3760 g/ha ([11]; 3.76 kg ai/ha): 30 to 44%

COC(=O)c1nc(-c2ccc(C(F)F)c(F)c2)cc(N)c1Cl [Compound 196]
pest or weed control at 3840 g/ha [1]: 95 to 100% | pest or weed control at 3840 g/ha [2]: 85 to 94% | pest or weed control at 3840 g/ha [3]: 95 to 100% | pest or weed control at 3840 g/ha ([12]; 3.84 kg ai/ha): 95 to 100% | pest or weed control at 3840 g/ha [4]: 95 to 100% | pest or weed control at 3840 g/ha [6]: 85 to 94% | pest or weed control at 3840 g/ha [7]: 95 to 100% | pest or weed control at 3840 g/ha [8]: 95 to 100% | pest or weed control at 3840 g/ha [9]: 95 to 100% | pest or weed control at 3840 g/ha [10]: 95 to 100% | pest or weed control at 3840 g/ha [11]: 60 to 74%
